This note sets out measurements from paper PMC12204359, “Mechanistic Design of Cell-Penetrating Disruptors for a Phospho-Dependent Interaction” (Research Square, 2025).

Each structure is given as a SMILES string. Substitutions are numbered along the chain they refer to. Positions of bridges follow the written chain, without caps; N, C: chain ends. Non-standard residues stand in square brackets, D forms with d. Residues, ends and D or L forms follow the SMILES beside them. *: point of attachment. 5FAM = O=C1OC2(c3ccc(O)cc3Oc3cc(O)ccc32)c2ccc(C(=O)*)cc21; 6FAM = O=C1OC2(c3ccc(O)cc3Oc3cc(O)ccc32)c2cc(C(=O)*)ccc21; S5 = C=CCCC[C@](C)(N)C(=O)O; AEEEA = NCCOCCOCCOCC(=O)O

For one data set, the system named is HeLa cells. In words: Confocal microscopy of fixed HeLa cells (peptide localisation, endogenous TACC3 and CHC on mitotic spindle). Format: cell-based. As for the experimental part: HeLa cells grown on glass coverslips in complete growth medium and treated with 2.5, 5 and 10 μM FAM-peptides for 5 h. Cells were washed with PBS and fixed with PTEMF (20 mM PIPES, pH 6.8, 10 mM EGTA, 1 mM MgCl2, 0.2% Triton X-100 and 4% paraformaldehyde) for 10 min and permeabilized at room temperature in 0.5% Triton-X100 in PBS for 10 min. Cells were blocked in 3% BSA in PBS for 1 h and incubated overnight with primary antibodies diluted in 3% BSA/PBS buffer followed by 1 h incubation with secondary antibodies. Primary antibodies were as follows: mouse anti-CHC (X22; GTX22731; 1:250), rabbit anti-TACC3 (ab134154, Abcam; 1:500). Secondary antibodies were anti-mouse IgG Atto 594 (1:250, 76085, Merck) and anti-rabbit IgG Atto 647N antibody (1:250, 40839, Merck). Coverslips were mounted with ProLong Gold antifade reagent with DAPI (Invitrogen). Peptides were imaged using their 6-FAM fluorescent tag with a 488 nm argon laser. Imaging was performed on a Zeiss LSM880 upright confocal microscope using a 40x/1.4 NA oil objective. Z-stacks comprising of 9–13 × 1 μm sections were acquired. Images were captured using identical settings. The region of interest (~0.6 μm^2) was quantified in three different locations over the spindle, cytoplasm and in the non-cell region of background. Images were analysed using Fiji (v.2.9.0).

The target in data set [1] is T1, CHC^ankle (clathrin heavy chain aa 358–574) (Homo sapiens, UniProt Q00610).
T1 construct: we used the minimal ankle region of CHC (CHC^ankle, aa 358–574); GST (TEV-cleavable); made in house
T1 sequence (Q00610 358-574): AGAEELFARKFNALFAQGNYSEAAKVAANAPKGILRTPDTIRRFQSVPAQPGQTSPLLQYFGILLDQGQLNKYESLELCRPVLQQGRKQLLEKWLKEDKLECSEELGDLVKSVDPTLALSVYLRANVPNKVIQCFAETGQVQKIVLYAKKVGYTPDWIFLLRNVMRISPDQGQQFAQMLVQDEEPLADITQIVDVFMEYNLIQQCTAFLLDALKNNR
As to the kind of experiment: Fluorescence polarisation direct binding assay, CHC ankle WT. The conditions noted are these: direct binding FP, FAM labelled peptides; CHC WT (385–574); mean of three experiments ± SD; read-out: KD, stapled and control peptides, CHC WT. As for the experimental part:
(§1) Binding affinity of CHC and TACC3 peptides was calculated based on fluorescence polarization assays performed as reported previously, using linear and stapled FAM-TACC3 peptides corresponding to aa 549–570 of human TACC3 protein. Linear peptides were purchased from PPR (Fareham, UK); Alta Bioscience (Redditch, UK); Biomatik Corporation (Ontario, Canada). Stock solutions of peptides were 10 mM in DMSO. Binding assays were performed in triplicate in the binding buffer 20 mM HEPES pH 7.5, 150 mM NaCl, 5 mM DTT, 0.05% Tween-20. Data analysis was performed using a one-site specific binding model in Prism (GraphPad software, v10.1.0).
Background: Fluorescence polarisation rises when a labelled molecule tumbles more slowly, as on binding a larger partner.

The next data set addresses T2, K507A-CHC^ankle (Homo sapiens, UniProt Q00610, K507A).
T2 construct: we used the minimal ankle region of CHC (CHC^ankle, aa 358–574); GST (TEV-cleavable); made in house
T2 sequence (Q00610 358-574 K507A): T1 sequence (Q00610 358-574) with K150A
As to the kind of experiment: Fluorescence polarisation direct binding assay, K507A-CHC ankle. The following applies: direct binding FP, FAM labelled peptides; CHC with K507A substitution; mean of three experiments ± SD; read-out: KD, stapled and control peptides, CHC K507A.
Source text: CHC constructs for binding studies were produced during previous work by cloning the respective CHC coding sequence of Q00610 (CLH1_HUMAN) aa 1–574 and 358–574, respectively) into a modified pGEX vector containing a TEV-cleavable GST tag[26]. Point mutations K506A and K507A were introduced by site-directed mutagenesis. GB1-TACC3 is the small protein GB1[47] fused to a short, disordered peptide sequence from human TACC3 (Q9Y6A5, aa 545–573). This hybrid sequence was cloned into a pETM6T1 vector which contains a TEV protease-cleavable N-terminal His-NusA tag.
as §1

Take `CC(C)C[C@H](NC(=O)[C@H](C)NC(=O)[C@H](CO)NC(=O)[C@H](CCC(=O)O)NC(=O)[C@H](CCCCN)NC(=O)c1ccc2c(c1)C(=O)OC21c2ccc(O)cc2Oc2cc(O)ccc21)C(=O)N[C@@H](CCCNC(=N)N)C(=O)N[C@@H](CCCCN)C(=O)N[C@@H](CCC(N)=O)C(=O)N[C@@H](CCC(=O)O)C(=O)N[C@@H](CC(C)C)C(=O)N[C@@H](CC(C)C)C(=O)N[C@@H](CC(C)C)C(=O)N[C@@H](CCC(=O)O)C(=O)N[C@@H](Cc1ccccc1)C(=O)N[C@@H](CC(=O)O)C(=O)N1CCC[C@H]1C(=O)N[C@@H](CC(C)C)C(=O)N[C@@H](Cc1ccccc1)C(=O)N[C@@H](CCCNC(=N)N)C(N)=O` [Opt P6 TACC3 S558E] (5FAM-KESALRKQELLLEFDPLFR-NH2; N-terminus and C-terminus assumed): in the data set with HeLa cells (fixed HeLa cells, 5 h after adding 5 μM FAM-peptide to the culture medium), the “cell permeability seen by confocal imaging” value is recorded as “not sufficiently cell permeable”.
On to `CC(C)C[C@H](NC(=O)[C@H](C)NC(=O)[C@H](CO)NC(=O)[C@H](CCC(=O)O)NC(=O)[C@H](CCCCN)NC(=O)COCCOCCOCCNC(=O)c1ccc2c(c1)C1(OC2=O)c2ccc(O)cc2Oc2cc(O)ccc21)C(=O)N[C@@H](CCCNC(=N)N)C(=O)N[C@@H](CCCCN)C(=O)N[C@@]1(C)CCCC=CCCC[C@@](C)(C(=O)N[C@@H](CCC(=O)O)C(=O)N[C@@H](Cc2ccccc2)C(=O)N[C@@H](CC(=O)O)C(=O)N2CCC[C@H]2C(=O)N[C@@H](CC(C)C)C(=O)N[C@@H](Cc2ccccc2)C(=O)N[C@@H](CCCNC(=N)N)C(=O)N[C@@H](CC(=O)O)C(=O)N[C@@H](CO)C(N)=O)NC(=O)[C@H](CC(C)C)NC(=O)[C@H](CC(C)C)NC(=O)[C@H](CCC(=O)O)NC1=O` [Opt PEG3 SP TACC3] ({6FAM-AEEEA}-KESALRK[S5]ELL[S5]EFDPLFRDS-NH2; staple 8-12), for which, in the data set on HeLa cells (fixed mitotic HeLa cells, FAM-labelled peptides, confocal microscopy), the “colocalisation with endogenous TACC3 on the mitotic spindle” value is listed as “colocalised with endogenous TACC3 on the mitotic spindle”. Moreover, in the data set with HeLa cells (metaphase HeLa cells, peptide 2.5, 5 and 10 μM, 5 h, compared to the negative control SP TACC3 peptide), the “reduction of endogenous TACC3 levels in the mitotic spindle” value is reported as “up to 40%”.
Usually Kd stands for the concentration at which binding is half-saturated. `CC(C)C[C@H](NC(=O)[C@H](Cc1ccc(O)cc1)NC(=O)[C@H](CC(C)C)NC(=O)[C@]1(C)CCCC=CCCC[C@](C)(NC(=O)[C@H](C)NC(=O)[C@H](CO)NC(=O)[C@H](CCC(=O)O)NC(=O)[C@H](CCCCN)NC(=O)[C@H](Cc2ccccc2)NC(=O)c2ccc3c(c2)C2(OC3=O)c3ccc(O)cc3Oc3cc(O)ccc32)C(=O)N[C@@H](CCCNC(=N)N)C(=O)N[C@@H](CCCCN)C(=O)N[C@@H](CCC(N)=O)C(=O)N1)C(=O)N[C@@H](CCCCN)C(=O)N[C@@H](Cc1ccccc1)C(=O)N[C@@H](CC(=O)O)C(=O)N1CCC[C@H]1C(=O)N[C@@H](CC(C)C)C(=O)N[C@@H](CC(C)C)C(=O)N[C@@H](CCCNC(=N)N)C(=O)N[C@@H](CC(=O)O)C(=O)N[C@@H](CO)C(N)=O` [SP2] (6FAM-FKESA[S5]RKQ[S5]LYLKFDPLLRDS-NH2; staple 6-10): the figures for the Kd (in data set [1]; at K507A-CHC^ankle) were 145 ± 3 µM and 23 ± 5 µM, respectively.
As for `CC(C)C[C@@H]1NC(=O)[C@H](C)NC(=O)[C@H](CO)NC(=O)[C@@](C)(NC(=O)[C@H](CCCCN)NC(=O)[C@H](Cc2ccccc2)NC(=O)c2ccc3c(c2)C2(OC3=O)c3ccc(O)cc3Oc3cc(O)ccc32)CCCC=CCCC[C@@](C)(C(=O)N[C@@H](CCCCN)C(=O)N[C@@H](CCC(N)=O)C(=O)N[C@@H](CC(=O)O)C(=O)N[C@@H](CC(C)C)C(=O)N[C@@H](Cc2ccc(O)cc2)C(=O)N[C@@H](CC(C)C)C(=O)N[C@@H](CCCCN)C(=O)N[C@@H](Cc2ccccc2)C(=O)N[C@@H](CC(=O)O)C(=O)N2CCC[C@H]2C(=O)N[C@@H](CC(C)C)C(=O)N[C@@H](CC(C)C)C(=O)N[C@@H](CCCNC(=N)N)C(=O)N[C@@H](CC(=O)O)C(=O)N[C@@H](CO)C(N)=O)NC1=O` [SP3D] (6FAM-FK[S5]SAL[S5]KQDLYLKFDPLLRDS-NH2; staple 3-7), the Kd in data set [1] is 92 ± 3 µM; at K507A-CHC^ankle, 23 ± 6 µM.
The matching figures for `CC(C)C[C@@H]1NC(=O)[C@H](C)NC(=O)[C@H](CO)NC(=O)[C@@](C)(NC(=O)[C@H](CCCCN)NC(=O)[C@H](Cc2ccccc2)NC(=O)c2ccc3c(c2)C(=O)OC32c3ccc(O)cc3Oc3cc(O)ccc32)CCCC=CCCC[C@@](C)(C(=O)N[C@@H](CCCCN)C(=O)N[C@@H](CCC(N)=O)C(=O)N[C@@H](CCC(=O)O)C(=O)N[C@@H](CC(C)C)C(=O)N[C@@H](Cc2ccc(O)cc2)C(=O)N[C@@H](CC(C)C)C(=O)N[C@@H](CCCCN)C(=O)N[C@@H](Cc2ccccc2)C(=O)N[C@@H](CC(=O)O)C(=O)N2CCC[C@H]2C(=O)N[C@@H](CC(C)C)C(=O)N[C@@H](CC(C)C)C(=O)N[C@@H](CCCNC(=N)N)C(=O)N[C@@H](CC(=O)O)C(=O)N[C@@H](CO)C(N)=O)NC1=O` [SP3E] (5FAM-FK[S5]SAL[S5]KQELYLKFDPLLRDS-NH2; staple 3-7): 78 ± 3 µM and 22 ± 6 µM.
Consider `CC(C)C[C@H](NC(=O)[C@H](C)NC(=O)[C@H](CO)NC(=O)[C@H](CCC(=O)O)NC(=O)[C@H](CCCCN)NC(=O)[C@H](Cc1ccccc1)NC(=O)c1ccc2c(c1)C(=O)OC21c2ccc(O)cc2Oc2cc(O)ccc21)C(=O)N[C@@H](CCCNC(=N)N)C(=O)N[C@@H](CCCCN)C(=O)N[C@@H](CCC(N)=O)C(=O)N[C@@H](CCC(=O)O)C(=O)N[C@@H](CC(C)C)C(=O)N[C@@H](Cc1ccc(O)cc1)C(=O)N[C@@]1(C)CCCC=CCCC[C@@](C)(C(=O)N[C@@H](CC(C)C)C(=O)N[C@@H](CC(C)C)C(=O)N[C@@H](CCCNC(=N)N)C(=O)N[C@@H](CC(=O)O)C(=O)N[C@@H](CO)C(N)=O)NC(=O)[C@H](CC(=O)O)NC(=O)[C@H](Cc2ccccc2)NC(=O)[C@H](CCCCN)NC1=O` [SP5E] (5FAM-FKESALRKQELY[S5]KFD[S5]LLRDS-NH2; staple 13-17), for which, on K507A-CHC^ankle, the Kd came out at 146 ± 3 µM.
